Values joined by “and” are separate entries in the source; they are usually repeats but may differ in a detail not shown here. Identical values can stand only once.
Columns and labels:
[1] = disclosed by Struck et al. (1966); cited from earlier work
[2] = test system: M5076 reticulum cell sarcoma; test: ip implanted M5076 reticulum cell sarcoma tumor model in mice; format: in vivo, mouse
Experimental: Another chemosensitive tumor model is intraperitoneally (ip) implanted M5076 reticulum cell sarocma in mice. In this system B6D2F female mice are inoculated with 0.5 ml of a 10 percent (w:v) brei of M5076 prepared from pooled subcutaneous (sc) tumors excised at about 21 days from C57B1/6 donors. Drugs are administered ip. Daily treatment is begun 24 hours after implantation and is continued for ten days. The treatment regimen for M5076 is more prolonged than for P388 because of the slower growth rate and longer control survival time of the M5076 tumor. A drug is considered active in this tumor model if it produces ≥25% ILS.

B16 melanoma = test: in vivo ip B16 melanoma assay; design: species or system mouse
Experimental: In this system, groups of eight B6D2F1 mice are inoculated ip with 0.5 ml of a 10% (w:v) brei of […] prepared from pooled sc tumors excised at 14-21 days from […] donor mice. Daily treatment is begun 24 hours after tumor implantation and is continued daily for ten (10) days. The route of drug administration is ip. The mice are monitored daily for survival for sixty (60) days. Antitumor activity is assessed by prolongation of median survival time. An ILS of ≥25% indicates activity in this tumor model.

[3] = test system: P388 lymphocytic leukemia; test: in vivo ip P388 leukemia mouse model
Excerpt: P388 lymphocytic leukemia is currently the most widely used animal tumor model for screening for antitumor agents and for detailed evaluation of active compounds. This tumor system is widely accepted as an antitumor agent screening tool because it is sensitive to virtually all of the clinically active antineoplastic agents; quantitative and reproducible; amenable for large-scale screening; and predictive for activity in other animal tumor models.
10^6 P388 leukemia cells are inoculated ip in B6D2F1 mice. Twenty-four hours later, if the tumor inoculum proves to be free of bacterial contamination (as determined by 24 hours incubation in thioglycollate broth), animals are randomized into groups of 6 and housed in shoebox cages. The compound to be evaluated is dissolved in a minimal volume of N,N-dimethylacetamide (DMA). An equal volume of saline is added; if the drug comes out of solution an equal volume of polyethoxylated castor oil is added and then saline qs to a concentration such that the desired dose is delivered in 0.5 ml. The final concentration of DMA and polyethoxylated castor oil is 10 percent. Dilutions for lower doses are made with saline so there is a decreasing proportion of organic solvents in the vehicle with decreasing dosage. This vehicle provides a soluble formulation. […] Animals are monitored daily for mortality and experiments are terminated after 45 days. […]

SMILES | cytotoxic activity [1] | MTD (maximally tolerated dose) ([2]; B6D2F female mice, ip qD × 10 regimen) [mg/kg] | ILS (MAX), maximum increase in lifespan ([2]; mice bearing ip M5076 reticulum cell sarcoma, ip daily for ten days) [%] | MTD (maximally tolerated dose) (B16 melanoma; B6D2F1 mice, ip qD × 10 regimen) [mg/kg] | ILS, maximum increase in lifespan (B16 melanoma; mice bearing ip B16 melanoma, ip daily for ten days) [%] | MTD (maximally tolerated dose) ([3]; B62DF female mice, ip qDX5 regimen) [mg/kg] | ILS (max), maximum increase in lifespan ([3]; mice bearing ip P388 leukemia, ip Days 1 through 5, figures separated by slashes are from separate experiments)
c1ccc(P(CCP(c2ccccc2)c2ccccc2)c2ccccc2)cc1 [1,2-bis(diphenylphosphino)ethane] | cytotoxic activity |  |  |  |  |  | 
[Cl][Au].c1ccc(P(CCP(CCP(c2ccccc2)c2ccccc2)c2ccccc2)CCP(c2ccccc2)c2ccccc2)cc1 (stereo not shown) [Compound 1, Chloro[1,1,4,7,10,10-hexaphenyl-1,4,7,10-tetraphosphodecane-P^1, P^4, P^7, P^10] gold(I)] |  | 2 | 38 | 2 | 37 | 3 | 40% and 65%

Reference: patent US4675427A, “Tetraphosphine-coordinated gold(I) complexes” (Smith Kline Beckman Corporation, priority 1985, dated 1987)
